Consider eight compounds from ChEMBL document CHEMBL1201862, “PubChem BioAssay data set” (2004).

Test systems include U-251; SNB-75; HL-60; OVCAR-8; OVCAR-3; OVCAR-5; MOLT-4; RXF 393; NCI-H23; HOP-62; UACC-257; MCF7; IGROV-1; A498; SK-MEL-28; SK-MEL-2; UACC-62; CCRF-CEM; UO-31; HOP-92.
Common to all, as to assay: inhibition of tumour cell growth, NCI panel, 48 h

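Dose response: 5 concentrations. Exposure: 48 h. Format: 96-well plates. Endpoint: linear interpolation; highest concentration if not reached. The concentration for 50% growth inhibition is given as GI50.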 Activity calls are given as the source filed them. Rule as the data show it: active = GI50 up to about 1.1 µM and inactive = higher.

With `SC1=NC2=C(CSC/C2=C\c2cccc(Br)c2)C(c2cccc(Br)c2)N1` (stereo not drawn), the GI50 in the test on U-251 was > 100 µM (inactive); in the test with SNB-75, 41.6 µM (inactive); in the test with HL-60, > 100 µM (inactive); with OVCAR-8 it was > 100 µM (inactive); in the test on OVCAR-3, > 100 µM (inactive); in the test with OVCAR-5 it was > 100 µM (inactive). In addition, the GI50 was 38.7 µM (inactive) in the test on MOLT-4; > 100 µM (inactive) in the test with RXF 393; 63.4 µM (inactive) in the test with NCI-H23; > 100 µM (inactive) in the test with HOP-62; > 100 µM (inactive) in the test on UACC-257; 64.1 µM (inactive) with MCF7. Further, the GI50 is > 100 µM (inactive) in the test with IGROV-1; > 100 µM (inactive) with A498; > 100 µM (inactive) in the test on SK-MEL-28; > 100 µM (inactive) in the test on SK-MEL-2; > 100 µM (inactive) in the test on UACC-62; 65.9 µM (inactive) in the test on CCRF-CEM.
On to `COC(=O)C(NC(=O)c1ccccc1)C(c1ccc(Cl)cc1)P(=O)(OC)OC` (stereo not drawn), for which the GI50 in the test on U-251, in the test on SNB-75, with HL-60, with OVCAR-8, with OVCAR-5 and in the test on UO-31 was > 100 µM (inactive) throughout. Also, the GI50 in the test on MOLT-4 was > 100 µM (inactive); with RXF 393 it was 33.9 µM (inactive); in the test on NCI-H23, 91.4 µM (inactive); in the test with HOP-62, > 100 µM (inactive); with UACC-257, > 100 µM (inactive); with IGROV-1, > 100 µM (inactive). Further, the GI50 in the test on A498, with SK-MEL-28, in the test with SK-MEL-2, in the test with UACC-62, in the test on HOP-92 and in the test with CCRF-CEM was > 100 µM (inactive) in each case.
`CC(=O)O[C@H]1CC[C@H]2[C@@H]3CC[C@H]4Nc5c(cnn5S(C)(=O)=O)C[C@]4(C)[C@H]3CC[C@]12C`: the GI50 was 53.1 µM (inactive) in the test on U-251; 37.2 µM (inactive) with SNB-75; > 100 µM (inactive) with HL-60; 45.4 µM (inactive) in the test with OVCAR-8; 27.5 µM (inactive) in the test with OVCAR-3; > 100 µM (inactive) in the test with OVCAR-5. In addition, the GI50 in the test with UO-31 was 88.1 µM (inactive); with MOLT-4 it was 47.9 µM (inactive); with RXF 393, > 100 µM (inactive); in the test on NCI-H23, > 100 µM (inactive); in the test with HOP-62, 27.6 µM (inactive); in the test on MCF7, 28.6 µM (inactive). Moreover, the GI50 with IGROV-1 is > 100 µM (inactive); in the test with A498 it was > 100 µM (inactive); in the test with SK-MEL-28, 48.2 µM (inactive); with SK-MEL-2 it was 61.7 µM (inactive); in the test on UACC-62 it was 33.7 µM (inactive); with HOP-92, 98.9 µM (inactive). In addition, the GI50 in the test on CCRF-CEM was 7.94 µM (inactive).
`COC(=O)Nc1nc2cc(C(=O)c3ccc[nH]3)ccc2[nH]1`: the GI50 in the test on U-251 was 0.721 µM (active); in the test with SNB-75 it was 0.235 µM (active); in the test with HL-60 it was 0.0689 µM (active); in the test with OVCAR-8 it was 3.18 µM (inactive); in the test with OVCAR-5 it was > 100 µM (inactive); with UO-31 it was 1.21 µM (inactive). The GI50 in the test on MOLT-4 is 0.575 µM (active); in the test on RXF 393 it was 0.0895 µM (active); with NCI-H23, 6.87 µM (inactive); in the test with HOP-62 it was 1.44 µM (inactive); with MCF7, 0.341 µM (active); with IGROV-1, 1.7 µM (inactive). Further, the GI50 with A498 was 3.04 µM (inactive); in the test with SK-MEL-28, 0.711 µM (active); with SK-MEL-2, 0.353 µM (active); with UACC-62 it was 0.425 µM (active); with CCRF-CEM it was 0.577 µM (active).
As to `CN1C2CCC1C(CO)C(=O)C2` (stereo not drawn), the GI50 was > 100 µM (inactive) in the test with U-251; > 100 µM (inactive) in the test on SNB-75; 3.56 µM (inactive) in the test with HL-60; 50.9 µM (inactive) in the test with OVCAR-8; > 100 µM (inactive) in the test on OVCAR-3; 18.2 µM (inactive) in the test on MOLT-4. Moreover, the GI50 in the test on RXF 393 was 57.4 µM (inactive); with NCI-H23, > 100 µM (inactive); in the test on HOP-62, > 100 µM (inactive); in the test on UACC-257, 85.1 µM (inactive); in the test with MCF7 it was 22.6 µM (inactive); in the test with IGROV-1, > 100 µM (inactive). The GI50 with A498 was > 100 µM (inactive); in the test with SK-MEL-28, > 100 µM (inactive); in the test on SK-MEL-2 it was > 100 µM (inactive); in the test on UACC-62, > 100 µM (inactive); in the test with HOP-92, > 100 µM (inactive); in the test with CCRF-CEM it was 10.2 µM (inactive).
As to `Cc1cc(=O)oc2cc(OCC(O)COC(C)C)ccc12` (stereo not drawn), the GI50 with U-251, in the test with SNB-75, in the test on HL-60, with OVCAR-8, with OVCAR-3 and with OVCAR-5 was > 100 µM (inactive) throughout. Also, the GI50 in the test on UO-31, in the test with MOLT-4, in the test on NCI-H23, in the test on HOP-62, in the test on UACC-257 and in the test on MCF7 was > 100 µM (inactive) throughout. Further, the GI50 in the test on IGROV-1 was > 100 µM (inactive); in the test on SK-MEL-28, > 100 µM (inactive); with UACC-62 it was > 100 µM (inactive); with HOP-92, 80.9 µM (inactive); in the test on CCRF-CEM, > 100 µM (inactive).
Regarding `CN1C2CC(=O)CC1[C@H](O)[C@@H]2O`, the GI50 with U-251, with HL-60, in the test with OVCAR-8, in the test with OVCAR-3, in the test on UO-31 and in the test with MOLT-4 was > 100 µM (inactive) each time. In addition, the GI50 in the test with RXF 393, in the test on NCI-H23, with HOP-62, with UACC-257, in the test on MCF7 and in the test with SK-MEL-28 was > 100 µM (inactive) in each case. Moreover, the GI50 in the test on SK-MEL-2 and with CCRF-CEM was > 100 µM (inactive) each time.
Regarding `[O-][S+]1c2ccccc2N=C(c2ccc3ccccc3c2)CC1c1ccccc1` (stereo not drawn), the GI50 was 18.6 µM (inactive) in the test with U-251; 17.1 µM (inactive) in the test with SNB-75; 25.9 µM (inactive) with HL-60; 16.4 µM (inactive) in the test with OVCAR-8; 21.5 µM (inactive) in the test on OVCAR-5; 18.4 µM (inactive) with UO-31. Besides, the GI50 is 31 µM (inactive) in the test with MOLT-4; 17.9 µM (inactive) in the test on NCI-H23; 29.3 µM (inactive) with HOP-62; 28.1 µM (inactive) in the test on UACC-257; 16.9 µM (inactive) with IGROV-1; 17.4 µM (inactive) in the test on A498. Also, the GI50 with SK-MEL-28 is 43 µM (inactive); in the test with SK-MEL-2, 30.8 µM (inactive); in the test with UACC-62 it was 36.6 µM (inactive); in the test on HOP-92, 35.6 µM (inactive); with CCRF-CEM, 31.8 µM (inactive).
